BindingDB's records for doi:10.7270/Q28C9TSJ (Nmmlsc, 2011)

Target: T1, Multidrug resistance protein CDR2 (Candida albicans (strain SC5314 / ATCC MYA-2876), UniProt P78595)
T1 sequence (P78595 whole entry): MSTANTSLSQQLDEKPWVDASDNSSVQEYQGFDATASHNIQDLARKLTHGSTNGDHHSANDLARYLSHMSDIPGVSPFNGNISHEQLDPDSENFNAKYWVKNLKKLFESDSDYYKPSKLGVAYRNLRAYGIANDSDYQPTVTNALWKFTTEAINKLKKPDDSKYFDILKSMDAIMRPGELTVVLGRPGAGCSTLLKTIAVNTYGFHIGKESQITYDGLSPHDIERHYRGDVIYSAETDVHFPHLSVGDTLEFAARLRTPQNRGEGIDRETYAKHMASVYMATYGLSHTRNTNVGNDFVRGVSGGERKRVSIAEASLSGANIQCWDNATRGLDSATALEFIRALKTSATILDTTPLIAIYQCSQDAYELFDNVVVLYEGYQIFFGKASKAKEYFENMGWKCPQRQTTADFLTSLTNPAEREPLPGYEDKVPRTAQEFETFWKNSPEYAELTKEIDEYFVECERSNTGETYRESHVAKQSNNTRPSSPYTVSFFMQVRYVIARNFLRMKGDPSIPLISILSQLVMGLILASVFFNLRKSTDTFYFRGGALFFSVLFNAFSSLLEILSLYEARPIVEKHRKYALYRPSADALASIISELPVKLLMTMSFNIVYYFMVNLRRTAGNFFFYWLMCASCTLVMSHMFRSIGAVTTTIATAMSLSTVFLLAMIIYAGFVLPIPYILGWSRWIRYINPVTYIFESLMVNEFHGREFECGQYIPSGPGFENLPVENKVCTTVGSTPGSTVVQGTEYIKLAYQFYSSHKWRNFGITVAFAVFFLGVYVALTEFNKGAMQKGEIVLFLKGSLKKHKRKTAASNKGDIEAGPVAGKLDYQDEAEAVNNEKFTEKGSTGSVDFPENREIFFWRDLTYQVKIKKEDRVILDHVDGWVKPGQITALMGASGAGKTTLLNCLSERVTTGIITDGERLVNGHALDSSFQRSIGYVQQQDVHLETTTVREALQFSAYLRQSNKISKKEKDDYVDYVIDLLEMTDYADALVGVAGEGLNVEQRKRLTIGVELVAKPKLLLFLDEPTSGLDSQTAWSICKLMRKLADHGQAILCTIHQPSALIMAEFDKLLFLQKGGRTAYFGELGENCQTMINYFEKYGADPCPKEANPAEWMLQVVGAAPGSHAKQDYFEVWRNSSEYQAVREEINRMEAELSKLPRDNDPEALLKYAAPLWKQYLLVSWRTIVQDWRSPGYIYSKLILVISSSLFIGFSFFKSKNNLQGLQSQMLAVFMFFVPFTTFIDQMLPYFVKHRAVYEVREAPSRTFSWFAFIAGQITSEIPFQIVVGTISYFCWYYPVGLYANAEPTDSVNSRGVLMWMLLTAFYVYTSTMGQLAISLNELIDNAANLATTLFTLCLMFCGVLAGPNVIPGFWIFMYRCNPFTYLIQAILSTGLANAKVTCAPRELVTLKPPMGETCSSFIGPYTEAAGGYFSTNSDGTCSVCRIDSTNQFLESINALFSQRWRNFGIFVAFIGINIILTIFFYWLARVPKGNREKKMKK
Assay: inhibition of Nile Red efflux via Candida CDR2 – S. cerevisiae AD1-8u, singleplex, Cherry Pick1 hits, dose response (AID 588604)

Molecule `O=[N+]([O-])c1cc(CN=Nc2ccccn2)ccc1Cl` has an EC50 of 9.33 µM.
